Results on nine molecules are retold here after US11951094B2, “TLR2 modulator compounds, pharmaceutical compositions and uses thereof” (Axial Therapeutics, Inc., priority 2020, dated 2024).

pEC50: −log10 of the molar value.

Sequence of TLR2 (O60603 21-784): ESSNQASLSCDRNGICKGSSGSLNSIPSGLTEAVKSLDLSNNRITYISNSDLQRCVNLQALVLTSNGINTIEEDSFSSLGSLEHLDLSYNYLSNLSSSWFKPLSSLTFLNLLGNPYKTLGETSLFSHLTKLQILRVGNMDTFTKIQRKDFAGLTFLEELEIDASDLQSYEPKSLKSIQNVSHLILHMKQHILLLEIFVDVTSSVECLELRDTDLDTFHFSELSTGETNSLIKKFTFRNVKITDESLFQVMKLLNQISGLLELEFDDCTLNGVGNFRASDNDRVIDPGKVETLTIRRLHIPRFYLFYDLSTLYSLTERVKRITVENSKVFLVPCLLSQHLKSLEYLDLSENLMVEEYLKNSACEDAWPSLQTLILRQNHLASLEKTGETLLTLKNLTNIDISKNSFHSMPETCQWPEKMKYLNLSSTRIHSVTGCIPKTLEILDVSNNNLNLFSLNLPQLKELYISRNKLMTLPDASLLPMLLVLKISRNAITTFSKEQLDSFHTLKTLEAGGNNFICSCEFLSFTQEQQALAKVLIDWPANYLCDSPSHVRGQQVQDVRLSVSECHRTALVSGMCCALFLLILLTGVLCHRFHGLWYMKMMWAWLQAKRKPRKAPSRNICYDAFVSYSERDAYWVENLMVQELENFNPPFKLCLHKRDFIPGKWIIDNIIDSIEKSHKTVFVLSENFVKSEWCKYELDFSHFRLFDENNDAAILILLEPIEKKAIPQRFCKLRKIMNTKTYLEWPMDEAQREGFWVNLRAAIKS

One test concerns the target TLR2 (Homo sapiens, UniProt O60603). The test can be described thus: TLR2 agonist screening assay, HEK-Blue TLR2 reporter cell line (NF-kB-driven SEAP, absorbance at 600 nm). It is filed as cell-based. Details: host or cells: HEK-293 (HEK-Blue TLR2 reporter cell line). Particulars: HEK-Blue TLR2 reporter cells, agonist mode; average of all runs (Table 3). The gist of the method: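 HEK-293 cells expressing TLR2 with NF-kB-driven SEAP were plated at 40,000 per well. After 16-24 h, they were treated overnight with diluted agonists in detection medium (1% DMSO final). Absorbance at 600 nm was read, and EC50 values were fitted.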
In the case of `CCCCCCCCNC(=O)C1CN(C(=O)c2ccc(C(=O)N3C[C@@H](C(=O)N[C@H]4C[C@@H]4c4ccccc4)[C@H](C(=O)N[C@H]4C[C@@H]4c4ccccc4)C3)cc2)CCN1C(=O)CCCCCCC` (stereo partly drawn) [Compound 065, (3S,4S)-1-(4-(4-octanoyl-3-(octylcarbamoyl)piperazine-1-carbonyl)benzoyl)-N3,N4-bis((1S,2R)-2-phenylcyclopropyl)pyrrolidine-3,4-dicarboxamide], the pEC50 (in general, the EC50 on a negative log10 scale, so that one unit is a factor of ten) is 6.46 to 7.29.
For `CCCCCCNC(=O)[C@H](CNC(=O)CCCCCC)NC(=O)c1ccc(C(=O)N2C[C@@H](C(=O)N[C@H]3C[C@@H]3c3ccccc3)[C@H](C(=O)N[C@H]3C[C@@H]3c3ccccc3)C2)cc1` [Compound 015], the pEC50 was less than 6.00.
For the molecule `O=C(N[C@H]1C[C@@H]1c1ccccc1)[C@@H]1CN(C(=O)c2cnc(C(=O)N3C[C@@H](C(=O)N[C@H]4C[C@@H]4c4ccccc4)[C@H](C(=O)N[C@H]4C[C@@H]4c4ccccc4)C3)nc2)C[C@H]1C(=O)N[C@H]1C[C@@H]1c1ccccc1` [Compound 071, (3S,3'S,4S,4'S)-1,1′-(pyrimidine-2,5-dicarbonyl)bis(N3,N4-bis((1S,2R)-2-phenylcyclopropyl)pyrrolidine-3,4-dicarboxamide)], the pEC50 is 6.46 to 7.29.
As for `CCCCCCCC(=O)N1CCN(C(=O)c2ccc(C(=O)N3C[C@@H](C(=O)N[C@H]4C[C@@H]4c4ccccc4)[C@H](C(=O)N[C@H]4C[C@@H]4c4ccccc4)C3)cc2)CC1C(=O)N[C@H]1C[C@@H]1c1ccccc1` (stereo partly drawn) [Compound 040], the pEC50 was less than 6.00.

The test is the same for the next values; noted with them: HEK-Blue TLR2 reporter cells, agonist mode; average of all runs (Table 4).
As for `CCCCCCNC(=O)CC[C@@H](NC(=O)c1ccc(C(=O)N2C[C@@H](C(=O)N[C@H]3C[C@@H]3c3ccccc3)[C@H](C(=O)N[C@H]3C[C@@H]3c3ccccc3)C2)cc1)C(=O)NCCCCCC` [Compound 099, (3S,4S)-1-(4-(((R)-1,5-bis(hexylamino)-1,5-dioxopentan-2-yl)carbamoyl)benzoyl)-N3,N4-bis((1S,2R)-2-phenylcyclopropyl)pyrrolidine-3,4-dicarboxamide], the negative logarithm of the EC50 (pEC50) was less than 6.00.
Still for that read-out and setting: to `CCCCCCCCCCCCCCNC(=O)[C@@H]1CN(C(=O)c2ccc(C(=O)N3C[C@@H](C(=O)N[C@H]4C[C@@H]4c4ccccc4)[C@H](C(=O)N[C@H]4C[C@@H]4c4ccccc4)C3)cc2)CCN1C(=O)CC(C)C` [Compound 252, (3S,4S)-1-(4-((S)-4-(3-methylbutanoyl)-3-(tetradecylcarbamoyl)piperazine-1-carbonyl)benzoyl)-N3,N4-bis((1S,2R)-2-phenylcyclopropyl)pyrrolidine-3,4-dicarboxamide] belongs less than 6.00.
Molecule `CCCCCCCCCCCCCCNC(=O)C1CCN(Cc2ccc(C(=O)N3C[C@@H](C(=O)N[C@H]4C[C@@H]4c4ccccc4)[C@H](C(=O)N[C@H]4C[C@@H]4c4ccccc4)C3)cc2)C1=O` (stereo partly drawn) [Compound 142, (3S,4S)-1-(4-((2-oxo-3-(tetradecylcarbamoyl)pyrrolidin-1-yl)methyl)benzoyl)-N3,N4-bis((1S,2R)-2-phenylcyclopropyl)pyrrolidine-3,4-dicarboxamide] showed a pEC50 of less than 6.00.
As for `CCCCCCNC(=O)[C@H](CNC(=O)c1ccc(C(=O)N2C[C@@H](C(=O)N[C@H]3C[C@@H]3c3ccccc3)[C@H](C(=O)N[C@H]3C[C@@H]3c3ccccc3)C2)cc1)NC(=O)OCCCCCC` [Compound 226, hexyl ((S)-3-(4-((3S,4S)-3,4-bis(((1S,2R)-2-phenylcyclopropyl)carbamoyl)pyrrolidine-1-carbonyl)benzamido)-1-(hexylamino)-1-oxopropan-2-yl)carbamate], the pEC50 was less than 6.00.
The molecule `CCCCCCCCCCCCCCNC(=O)C1COC(=O)N(Cc2ccc(C(=O)N3C[C@@H](C(=O)N[C@H]4C[C@@H]4c4ccccc4)[C@H](C(=O)N[C@H]4C[C@@H]4c4ccccc4)C3)cc2)C1` (stereo partly drawn) [Compound 179] gave a pEC50 of less than 6.00.
